Reference: patent publication US20220315571A1 (Cytokinetics, Inc., priority 2019, published 2022)
Like-named read-outs stand apart in the source and are kept apart here.

What was measured:
[1] = tested on: myocytes; assay: Myocyte contractility assay (fractional shortening, edge detection); format: cell-based, Sprague-Dawley rats; conditions: 5 μM, adult rat myocytes, 5 min perfusion, 5 cells tested
Method: Adult male Sprague-Dawley rats were anesthetized and the hearts were quickly excised, rinsed and the ascending aorta was cannulated. Continuous retrograde perfusion was initiated on the hearts at a perfusion pressure of 60 cm H2O. Hearts were first perfused with a nominally Ca^2+-free modified Krebs solution of the following composition: 113 mM NaCl, 4.7 mM KCl, 0.6 mM KH2PO4, 0.6 mM Na2HPO4, 1.2 mM MgSO4, 12 mM NaHCO3, 10 mM KHCO3, 30 mM taurine, 5.5 mM glucose and 10 mM Hepes (all Sigma). This medium is not recirculated and is continually aerated with a 95% O2/5% CO2 mixture. […]
Aliquots of myocytes in Tyrode's buffer were placed in perfusion chambers (series 20 RC-27NE; Warner Instruments) complete with heating platforms. […] Contractility of the myocytes and contraction and relaxation velocities were then recorded using edge detection.
Five or more individual myocytes were tested per compound from two or more different myocyte preparations. […] These average transients were analyzed using the IonWizard software (IonOptix) to determine changes in diastolic length and fractional shortening. Fractional shortening was calculated as: ((resting length−length at peak contraction) divided by the resting length). The percent change in fractional shortening from baseline was calculated as: ((post-dose fractional shortening/basal fractional shortening)*100). […]

[2] = tested on: Rat Cardiac Contractility; assay: Echocardiography assessment of acute pharmacodynamic effect in rat cardiac contractility; format: in vivo, Sprague Dawley rats
Method: Assessment of in vivo cardiac function by echocardiography was performed in male Sprague Dawley rats under isoflurane (1-3%) anesthesia. 2-D M-mode images of the left ventricle were acquired in the parasternal long-axis view before, during, and after administration of compounds by continuous IV infusion or oral gavage. In vivo fractional shortening was determined by M-mode image analysis with the following calculation: ((End diastolic diameter—end systolic diameter)/end diastolic diameter×100). For continuous IV infusion experiments, three pre-dose baseline M-mode images were taken at 1 minute intervals prior to infusion of compound. Compounds were formulated in 50% Propylene Glycol (PG): 16% Captisol: 10% dimethylacetamide (DMA) and delivered via a jugular vein catheter at the rate of 1 mL/kg/h. During infusion, M-mode images were taken at 5 minute intervals. The infusion stopped when fractional shortening reached up to a 60% reduction from baseline. Blood samples were taken to determine the plasma concentration of the compounds. Data was reported as an estimated IC50 value, which is the concentration at which fractional shortening is 50% of the pre-dose baseline contractility.
For oral dosing studies, three pre-dose baseline M-Mode images were taken at 1 minute intervals prior to compound administration. […] Rats were lightly anesthetized for M-Mode echocardiography measurements at select time points over a 24 hour period. Different dose levels were evaluated. The compound effect on cardiac fractional shortening at the highest dose evaluated is presented below as a percent reduction of baseline fractional shortening (=100%).
Concurrent with echocardiography measurements, blood samples were taken to determine the corresponding compound plasma concentration.

[3] = Polymorph screening, heat/humidity exposure of Form I (XRPD); format: physicochemical
Method: Polymorphic Form I of (R)-N-(5-(5-ethyl-1,2,4-oxadiazol-3-yl)-2,3-dihydro-1H-inden-1-yl)-1-methyl-1H-pyrazole-4-carboxamide was mixed with various solvents under various conditions. Samples generated were analyzed by XRPD.

[4] = Dynamic Vapor Sorption (DVS); format: physicochemical; conditions: 5-90% relative humidity (RH) range, 25° C.
Method: DVS analyses were carried out TA Instruments Q5000 Dynamic Vapor Sorption analyzer. The instrument was calibrated with standard weights and a sodium bromide standard for humidity. Samples were analyzed at 25° C. with a maximum equilibration time of 60 minutes in 10% relative humidity (RH) steps from 5 to 95% RH (adsorption cycle) and from 95 to 5% RH (desorption cycle).
Polymorphic Form I of (R)-N-(5-(5-ethyl-1,2,4-oxadiazol-3-yl)-2,3-dihydro-1H-inden-1-yl)-1-methyl-1H-pyrazole-4-carboxamide was analyzed by XRPD, DSC, TGA, and DVS. […] As shown in the TGA graph, a weight loss of 0.2% below 200° C., was observed.

[5] = Competitive slurry experiments between Form I and Form IV; format: physicochemical
Excerpt: The results of the competitive slurry experiments are provided below in Table 7.

With `CCc1nc(-c2ccc3c(c2)CC[C@H]3NC(=O)c2cnn(C)c2)no1` [(R)-N-(5-(5-ethyl-1,2,4-oxadiazol-3-yl)-2,3-dihydro-1H-inden-1-yl)-1-methyl-1H-pyrazole-4-carboxamide] the “% FS (% reduction from baseline) ± SEM” value [1] was 67.4 ± −5.8%, the “FS (% reduction from baseline) at 1-2 h post dose (Mean ± S.D.)” value ([2]; 2 mg/kg single dose by oral gavage, rat, 1-2 h post dose) was 43 ± 9% and the “FS (% reduction from baseline) at 4 h post dose (Mean ± S.D.)” value ([2]; 2 mg/kg single dose by oral gavage, rat, 4 h post dose) was 31 ± 9%. The IC50 ([2]; continuous IV infusion, rats under isoflurane, read-out: estimated IC50 (plasma concentration at which fractional shortening is 50% of pre-dose baseline contractility), Mean±S.D.) was 7.2 ± 0.2 µM, the “estimated IC10 (plasma concentration, fractional shortening)” value ([2]; oral dosing studies, rat) was 0.8 µM and the IC50 ([2]; oral dosing studies, rat, read-out: estimated IC50 (plasma concentration, fractional shortening)) was 7.9 µM.

For `CCc1nc(-c2ccc3c(c2)CC[C@H]3NC(=O)c2cnn(C)c2)no1` [Form I, (R)-N-(5-(5-ethyl-1,2,4-oxadiazol-3-yl)-2,3-dihydro-1H-inden-1-yl)-1-methyl-1H-pyrazole-4-carboxamide], the “XRPD form after heat/humidity exposure” value ([3]; none, RT, 0% RH) was “Form I”, the “XRPD form after heat/humidity exposure” value ([3]; water vapor, 40° C., 75% RH) was “Form I” and the “XRPD form after heat/humidity exposure” value ([3]; water vapor, RT, 59% RH) was “Form I”. The “XRPD form after heat/humidity exposure” value ([3]; water vapor, RT, 75% RH) was “Form I”, the “XRPD form after heat/humidity exposure” value ([3]; water vapor, RT, 97% RH) was “Form I” and the “moisture uptake as determined by DVS” value [4] was 0.60 % w/w.

For `CCc1nc(-c2ccc3c(c2)CC[C@H]3NC(=O)c2cnn(C)c2)no1` [Form IV, (R)-N-(5-(5-ethyl-1,2,4-oxadiazol-3-yl)-2,3-dihydro-1H-inden-1-yl)-1-methyl-1H-pyrazole-4-carboxamide], the “relative stability of forms in competitive slurry” value ([5]; temperature range 2-60° C.) was “more stable than Form I”.

In the case of `CCc1nc(-c2ccc3c(c2)CC[C@H]3NC(=O)c2cnn(C)c2)no1` [Forms I and IV, (R)-N-(5-(5-ethyl-1,2,4-oxadiazol-3-yl)-2,3-dihydro-1H-inden-1-yl)-1-methyl-1H-pyrazole-4-carboxamide], the “XRPD form after competitive slurry” value ([5]; ACN, 2 ° C.) is reported as “Form IV”, the “XRPD form after competitive slurry” value ([5]; ACN, 25 ° C.) is reported as “Form IV” and the “XRPD form after competitive slurry” value ([5]; ACN, 60 ° C.) is reported as “Form IV”. For the same molecule, the “XRPD form after competitive slurry” value ([5]; acetone, 2 ° C.) was “Form IV”, the “XRPD form after competitive slurry” value ([5]; acetone, 25 ° C.) was “Form IV” and the “XRPD form after competitive slurry” value ([5]; acetone, 60 ° C.) was “Form IV”.
